Where “and” joins values, the source holds several entries; their conditions need not be identical. Equal values may be shown once. Read-outs that look alike come from different tables or passages of the source. Peptide text beside a SMILES is read from it. * marks the point of attachment. βNA = c1ccc2cc(N*)ccc2c1
Assays:
[1] = test system: E. coli AG100A (AcrAB pump-deficient); assay: MIC, broth microdilution; assay type: cell-based, Escherichia coli; settings: Escherichia coli
[2] = test system: E. coli AG100tet (AcrAB overexpressing); assay: MIC, broth microdilution; assay type: cell-based, Escherichia coli; settings: Escherichia coli
[3] = test system: E. coli AG100A; assay: microbe, parasite or virus in culture; assay type: cell-based, Escherichia coli; settings: for MIC: Escherichia coli, AG100A
[4] = test system: E. coli AG100; assay: EtBr efflux by real-time fluorometry; settings: for EtBr fluorescence (Channel Cycling A.530/585hp): 80 µM

NC(N)=NCCC[C@H](NC(=O)[C@@H](N)Cc1ccccc1)C(=O)Nc1ccc2ccccc2c1 [PAβN] (H-Phe-Arg-βNA)
MIC [1]: 50 µg/mL and 96.3 µM
MIC [2]: > 200 µg/mL and > 385 µM
effect on OFX and EtBr MICs ([3]; AG100A (pump-deficient strain)): no effect
reduction in OXA MIC ([3]; AG100A (pump-deficient strain)): 4 fold
reduction in TET MIC ([3]; AG100A (pump-deficient strain)): 16 fold
MIC ([3]; read-out: MIC of EtBr in presence of the efflux inhibitor): 3.12 µg/mL
MIC ([3]; read-out: MIC of OFX in presence of the efflux inhibitor): 0.03 µg/mL
MIC ([3]; read-out: MIC of OXA in presence of the efflux inhibitor): 0.25 µg/mL
MIC ([3]; read-out: MIC of TET in presence of the efflux inhibitor): 0.03 µg/mL
inhibition of EtBr efflux ([4]; AG100, AG100A and AG100tet (Fig. 2), 80 μM (20 μM for AG100A), glucose, 37 °C): to a lesser extent
EtBr fluorescence (Channel Cycling A.530/585hp) ([4]; cycle 1, + glucose): 2.175
EtBr fluorescence (Channel Cycling A.530/585hp) ([4]; cycle 1, without glucose): 1.796
EtBr fluorescence (Channel Cycling A.530/585hp) ([4]; cycle 2, + glucose): 1.889
EtBr fluorescence (Channel Cycling A.530/585hp) ([4]; cycle 2, without glucose): 1.72
EtBr fluorescence (Channel Cycling A.530/585hp) ([4]; cycle 3, + glucose): 1.756
EtBr fluorescence (Channel Cycling A.530/585hp) ([4]; cycle 3, without glucose): 1.635
EtBr fluorescence (Channel Cycling A.530/585hp) ([4]; cycle 4, without glucose): 1.556
EtBr fluorescence (Channel Cycling A.530/585hp) ([4]; cycle 5, without glucose): 1.502
EtBr fluorescence (Channel Cycling A.530/585hp) ([4]; cycle 6, without glucose): 1.4519
EtBr fluorescence (Channel Cycling A.530/585hp) ([4]; cycle 7, without glucose): 1.472
EtBr fluorescence (Channel Cycling A.530/585hp) ([4]; cycle 8, without glucose): 1.378
EtBr fluorescence (Channel Cycling A.530/585hp) ([4]; cycle 9, + glucose): 1.339
EtBr fluorescence (Channel Cycling A.530/585hp) ([4]; cycle 9, without glucose): 1.359
EtBr fluorescence (Channel Cycling A.530/585hp) ([4]; cycle 10, + glucose): 1.264
EtBr fluorescence (Channel Cycling A.530/585hp) ([4]; cycle 10, without glucose): 1.368
EtBr fluorescence (Channel Cycling A.530/585hp) ([4]; cycle 11, + glucose): 1.2447
EtBr fluorescence (Channel Cycling A.530/585hp) ([4]; cycle 11, without glucose): 1.355
EtBr fluorescence (Channel Cycling A.530/585hp) ([4]; cycle 12, + glucose): 1.251
EtBr fluorescence (Channel Cycling A.530/585hp) ([4]; cycle 12, without glucose): 1.312
EtBr fluorescence (Channel Cycling A.530/585hp) ([4]; cycle 13, + glucose): 1.259
EtBr fluorescence (Channel Cycling A.530/585hp) ([4]; cycle 13, without glucose): 1.3469
EtBr fluorescence (Channel Cycling A.530/585hp) ([4]; cycle 14, + glucose): 1.222
EtBr fluorescence (Channel Cycling A.530/585hp) ([4]; cycle 14, without glucose): 1.257
EtBr fluorescence (Channel Cycling A.530/585hp) ([4]; cycle 15, + glucose): 1.22
EtBr fluorescence (Channel Cycling A.530/585hp) ([4]; cycle 15, without glucose): 1.235
EtBr fluorescence (Channel Cycling A.530/585hp) ([4]; cycle 16, + glucose): 1.167
EtBr fluorescence (Channel Cycling A.530/585hp) ([4]; cycle 16, without glucose): 1.232
EtBr fluorescence (Channel Cycling A.530/585hp) ([4]; cycle 17, + glucose): 1.194
EtBr fluorescence (Channel Cycling A.530/585hp) ([4]; cycle 17, without glucose): 1.242
EtBr fluorescence (Channel Cycling A.530/585hp) ([4]; cycle 18, + glucose): 1.167
EtBr fluorescence (Channel Cycling A.530/585hp) ([4]; cycle 18, without glucose): 1.283
EtBr fluorescence (Channel Cycling A.530/585hp) ([4]; cycle 19, + glucose): 1.179
EtBr fluorescence (Channel Cycling A.530/585hp) ([4]; cycle 19, without glucose): 1.241
EtBr fluorescence (Channel Cycling A.530/585hp) ([4]; cycle 20, + glucose): 1.201
EtBr fluorescence (Channel Cycling A.530/585hp) ([4]; cycle 20, without glucose): 1.199
EtBr fluorescence (Channel Cycling A.530/585hp) ([4]; cycle 21, + glucose): 1.201
EtBr fluorescence (Channel Cycling A.530/585hp) ([4]; cycle 21, without glucose): 1.185
EtBr fluorescence (Channel Cycling A.530/585hp) ([4]; cycle 22, + glucose): 1.145
EtBr fluorescence (Channel Cycling A.530/585hp) ([4]; cycle 22, without glucose): 1.19
EtBr fluorescence (Channel Cycling A.530/585hp) ([4]; cycle 23, + glucose): 1.181
EtBr fluorescence (Channel Cycling A.530/585hp) ([4]; cycle 23, without glucose): 1.1696
EtBr fluorescence (Channel Cycling A.530/585hp) ([4]; cycle 24, + glucose): 1.1726
EtBr fluorescence (Channel Cycling A.530/585hp) ([4]; cycle 24, without glucose): 1.092
EtBr fluorescence (Channel Cycling A.530/585hp) ([4]; cycle 25, + glucose): 1.158
EtBr fluorescence (Channel Cycling A.530/585hp) ([4]; cycle 25, without glucose): 1.1723
EtBr fluorescence (Channel Cycling A.530/585hp) ([4]; cycle 26, + glucose): 1.17
EtBr fluorescence (Channel Cycling A.530/585hp) ([4]; cycle 26, without glucose): 1.164
EtBr fluorescence (Channel Cycling A.530/585hp) ([4]; cycle 27, + glucose): 1.169
EtBr fluorescence (Channel Cycling A.530/585hp) ([4]; cycle 27, without glucose): 1.126
EtBr fluorescence (Channel Cycling A.530/585hp) ([4]; cycle 28, + glucose): 1.177
EtBr fluorescence (Channel Cycling A.530/585hp) ([4]; cycle 28, without glucose): 1.147
EtBr fluorescence (Channel Cycling A.530/585hp) ([4]; cycle 29, + glucose): 1.1781
EtBr fluorescence (Channel Cycling A.530/585hp) ([4]; cycle 29, without glucose): 1.123
EtBr fluorescence (Channel Cycling A.530/585hp) ([4]; cycle 30, + glucose): 1.125
EtBr fluorescence (Channel Cycling A.530/585hp) ([4]; cycle 30, without glucose): 1.105
EtBr fluorescence (Channel Cycling A.530/585hp) ([4]; cycle 31, + glucose): 1.166
EtBr fluorescence (Channel Cycling A.530/585hp) ([4]; cycle 31, without glucose): 1.145
EtBr fluorescence (Channel Cycling A.530/585hp) ([4]; cycle 32, + glucose): 1.148
EtBr fluorescence (Channel Cycling A.530/585hp) ([4]; cycle 32, without glucose): 1.083
EtBr fluorescence (Channel Cycling A.530/585hp) ([4]; cycle 33, + glucose): 1.1593
EtBr fluorescence (Channel Cycling A.530/585hp) ([4]; cycle 33, without glucose): 1.053
EtBr fluorescence (Channel Cycling A.530/585hp) ([4]; cycle 34, + glucose): 1.173
EtBr fluorescence (Channel Cycling A.530/585hp) ([4]; cycle 34, without glucose): 1.055
EtBr fluorescence (Channel Cycling A.530/585hp) ([4]; cycle 35, + glucose): 1.1603
EtBr fluorescence (Channel Cycling A.530/585hp) ([4]; cycle 35, without glucose): 1.086
EtBr fluorescence (Channel Cycling A.530/585hp) ([4]; cycle 36, + glucose): 1.157
EtBr fluorescence (Channel Cycling A.530/585hp) ([4]; cycle 36, without glucose): 1.095
EtBr fluorescence (Channel Cycling A.530/585hp) ([4]; cycle 37, + glucose): 1.1393
EtBr fluorescence (Channel Cycling A.530/585hp) ([4]; cycle 37, without glucose): 1.081
EtBr fluorescence (Channel Cycling A.530/585hp) ([4]; cycle 38, + glucose): 1.174
EtBr fluorescence (Channel Cycling A.530/585hp) ([4]; cycle 38, without glucose): 1.066
EtBr fluorescence (Channel Cycling A.530/585hp) ([4]; cycle 39, + glucose): 1.096
EtBr fluorescence (Channel Cycling A.530/585hp) ([4]; cycle 39, without glucose): 1.058
EtBr fluorescence (Channel Cycling A.530/585hp) ([4]; cycle 40, + glucose): 1.115
EtBr fluorescence (Channel Cycling A.530/585hp) ([4]; cycle 40, without glucose): 1.043
EtBr fluorescence (Channel Cycling A.530/585hp) ([4]; cycle 41, + glucose): 1.134
EtBr fluorescence (Channel Cycling A.530/585hp) ([4]; cycle 41, without glucose): 1.067
EtBr fluorescence (Channel Cycling A.530/585hp) ([4]; cycle 42, + glucose): 1.162
EtBr fluorescence (Channel Cycling A.530/585hp) ([4]; cycle 42, without glucose): 1.058
EtBr fluorescence (Channel Cycling A.530/585hp) ([4]; cycle 43, + glucose): 1.125
EtBr fluorescence (Channel Cycling A.530/585hp) ([4]; cycle 43, without glucose): 1.031
EtBr fluorescence (Channel Cycling A.530/585hp) ([4]; cycle 44, + glucose): 1.108
EtBr fluorescence (Channel Cycling A.530/585hp) ([4]; cycle 44, without glucose): 1.002
EtBr fluorescence (Channel Cycling A.530/585hp) ([4]; cycle 45, without glucose): 0.9943
EtBr fluorescence (Channel Cycling A.530/585hp) ([4]; cycle 46, without glucose): 1.025
EtBr fluorescence (Channel Cycling A.530/585hp) ([4]; cycle 47, without glucose): 1.03
EtBr fluorescence (Channel Cycling A.530/585hp) ([4]; cycle 48, without glucose): 1.056
EtBr fluorescence (Channel Cycling A.530/585hp) ([4]; cycle 49, without glucose): 1.07
EtBr fluorescence (Channel Cycling A.530/585hp) ([4]; cycle 50, without glucose): 1.062
EtBr fluorescence (Channel Cycling A.530/585hp) ([4]; cycle 51, without glucose): 1.026
EtBr fluorescence (Channel Cycling A.530/585hp) ([4]; cycle 52, without glucose): 1.029
EtBr fluorescence (Channel Cycling A.530/585hp) ([4]; cycle 53, without glucose): 1.04
EtBr fluorescence (Channel Cycling A.530/585hp) ([4]; cycle 54, without glucose): 1.019
EtBr fluorescence (Channel Cycling A.530/585hp) ([4]; cycle 55, without glucose): 0.9589
EtBr fluorescence (Channel Cycling A.530/585hp) ([4]; cycle 56, without glucose): 0.9927

Source: publication PMC5433425 (PeerJ, 2017)
